The values below are quoted from earlier work in US20080008798A1, “Salts of astaxathin esters” (priority 2002, published 2008).

The structures appear in SMILES notation.

The conditions of data set [1]: per week; storage of the manufactured feed under ambient conditions.
Another data set has as its system flesh pigmentation. To be noted: feeding non-formulated astaxanthin.

As for `CC1=C(/C=C/C(C)=C/C=C/C(C)=C/C=C/C=C(C)/C=C/C=C(C)/C=C/C2=C(C)C(=O)[C@@H](O)CC2(C)C)C(C)(C)C[C@H](O)C1=O` [astaxanthin], the “contained pigment lost through degradation during storage” value in data set [1] is given as “about 2%”. In the data set with flesh pigmentation, the pigmentation effect result is given as “almost no pigmentation effect”.
